Results reported in US20240358721A1, “GASDERMIN-D INHIBITORS AND USES THEREOF FOR TREATING PULMONARY VASO-OCCLUSION” (UNIVERSITY OF PITTSBURGH-OF THE COMMONWEALTH SYSTEM OF …, priority 2021, published 2024).
Entries after “also recorded” stand apart in the source; their conditions may differ.

System: SCD mice
Experiment: qFILM assessment of pulmonary vaso-occlusion in SCD mice IV administered oxy-Hb
Assay type: in vivo, mouse
Conditions: LDC7559 10 mg/kg, Z-VAD-FMK 0.004 μmol/kg
Text: Quantitative fluorescence intravital lung microscopy (qFILM) was used to assess the absence or presence of platelet-neutrophil aggregate mediated pulmonary vaso-occlusion. Pulmonary microcirculation (pseudo-colored purple), neutrophils (red) and platelets (pseudo-colored green) were labeled in vivo by IV administration of FITC dextran, AF546-anti-Ly6G Ab and V450-anti-CD49b Ab, respectively. […] White arrows denote the direction of blood flow within the pulmonary arterioles. Alveoli are marked with asterisks. Scale bars 20 μm. The diameter of pulmonary arteriole in B-E is ˜22 μm, 32 μm, 31.5 μm, and 31 μm, respectively. […] Refer Online Data Supplement for details. […] The data for mice with SCD IV administered 10 oxy-Hb (n=5 mice; 75 FOVs) are included as black bars in FIGS. 1N and 1O for relative comparison. qFILM FOV size ˜65 536 μm^2. Data represent mean ±SE and are compared using Student t test. *P<0.05 (FIG. 1P) Schematic showing the main findings of the study. The sterile inflammatory milieu (DAMPs, IFN-I signaling, and ROS) in SCD promotes caspase-4 (humans) or caspase-11 (mouse)-dependent cleavage of neutrophil GSDMD into the active form GSDMD-NT, leading to the shedding of NETs in the liver microcirculation. Once shed, these NETs are carried by the blood as cNETs to the lung, where they promote neutrophil-platelet aggregation in the pulmonary arterioles, leading to PVO and lung injury (acute chest syndrome).
Intravital lung microscopy (experimental scheme shown in FIG. 1A) was conducted in live mice to assess whether preventing liver-to-lung embolization of cNETs by inhibiting or deleting GSDMD-signaling leads to amelioration of pulmonary vaso-occlusion. Although large neutrophil-platelet aggregates (marked with dotted ellipses) were seen occluding the arteriolar bottle-necks, leading to impaired blood flow in the lung of SCD mice IV administered 10 μmole/kg oxy-Hb (FIG. 1B), such aggregates were rare in the lung of SCD mice IV administered 10 μmole/kg oxy-Hb with 0.004 μmol/kg pan-caspase inhibitor Z-VAD-FMK (FIG. 1C) or 10 mg/kg GSDMD-NT inhibitor LDC7559 (FIG. 1D) or 20 mg/kg GSDMD-NT inhibitor Necrosulfonamide (FIG. 1E). […] The twofold higher dose of 20 μmole/kg IV oxy-Hb also led to the development of lung vaso-occlusion in WT but not Gsdmd^−/− mice (FIG. 2). […] P-selectin deficiency led to an approximately 50% reduction in pulmonary vaso-occlusion in SCD-Selp^−/− mice administered 10 μmole/kg IV oxy-Hb (FIG. 3), however, IV administration of oxy-Hb with GSDMD-NT inhibitor (LDC7559) led to further threefold (significant) reduction in pulmonary vaso-occlusions per FOV (FIGS. 1N and 4A, and FIG. 5) and absence of large pulmonary vaso-occlusions (area>1000 μm^2) per FOV (FIG. 10) in SCD-Selp^−/− mice.
Quantitative fluorescence intravital lung microscopy (qFILM) has been used widely for in vivo assessment of pulmonary vasoocclusion in mice with SCD [Bennewitz M F et al., (2017); Vats R, Brzoska T, Bennewitz M F, et al. (2020); Vats R, Tutuncuoglu E, Pradhan-Sundd T, Tejero J, Shaw G D, Sundd P. (2020); Bennewitz M F, Tutuncuoglu E, Gudapati S, et al. (2020)] In the current study, qFILM was used to assess pulmonary vaso-occlusion and detect NETs in the intact lung microcirculation of live mice following IV challenge with saline, oxy-hemoglobin (oxy-Hb), hemin, or lipo-polysaccharide with or without pretreatment with N-terminus active domain (GSDMD-NT) inhibitors LDC7559 [Sollberger G, Choidas A, Burn G L, et al. (2018)], NSA [Rathkey J K, Zhao J, Liu Z, et al. (2018)], Disulfiram [Hu J J, Liu X, Xia S, et al. (2020)], or the pan-caspase inhibitor Z-VAD-FMK [Sollberger G, Choidas A, Burn G L, et al. (2018)], haptoglobin [Belcher J D, Chen C, Nguyen J, et al. (2014)], or TLR4-inhibitor (TAK242) [Belcher J D, Chen C, Nguyen J, et al. (2014)]. qFILM was conducted with a Nikon multiphoton excitation fluorescence microscope and an APO LWD 25×water immersion objective with 1.1 NA. […]

[1] = IV 10 μmole/kg oxy-Hb with inhibitor vs oxy-Hb alone, NSA 20 mg/kg
[2] = IV 10 μmole/kg oxy-Hb with inhibitor, NSA 20 mg/kg

## COc1ccccc1-c1cc2n(n1)Cc1ccc(NC(C)=O)cc1OC2 [LDC7559]
[1]
  Number of PVOs per Field of View (#PVOs/FOV): significantly less; also recorded: significantly reduced
  number of large PVOs (with area>1000 μm^2) per FOV: significantly less; also recorded: significantly reduced
[2]
  blood flow in the lung (rapidly transiting erythrocytes): significantly improved
  lung vaso-occlusion in representative qFILM images: absence of lung vaso-occlusion; also recorded: lack of pulmonary vaso-occlusion
IV 10 μmole/kg oxy-Hb with inhibitor, Necrosulfonamide 20 mg/kg
  large neutrophil-platelet aggregates occluding the arteriolar bottle-necks in the lung: rare
